From patent US20030092695A1, “Metal salts of 3-methyl-chromane or thiochromane derivatives” (priority 1999, published 2003)
In brackets after ≈: the same amount, converted by molar mass.

Experiments:
[1] = system: increase in uterus weight by stimulus with estradiol; test: Anti-estrogenic activity via oral administration (inhibition of estradiol-stimulated uterus weight increase); format: in vivo; details: ovariectomized ICR mice, 17β-estradiol-benzoate 0.1 μg/day s.c. for 3 days, 10 mg/kg p.o., once a day, in 5% arabic gum
Method: Oral anti-estrogenic activity in vivo of the test compound was determined according to the method described hereinafter.
In this experiment, the test compound or the control compound was suspended in 5% arabic gum solution and orally administered for 3 days, once a day. After 24 hours from the last administration, the test animal was sacrificed and uterus was removed and weighed.

[2] = Solubility test in FaSSIF or water, shaken at 37° C., filtrate measured by HPLC
Method: The degree of improvement in solubility was determined by measuring the solubility of the test compound as follows.
To 1 mg of each compound was added 2 ml of FaSSIF (artificial intestinal juice, bile) or water, which was then shaken at 37° C. After 1, 2 and 20 hours, 200 μm of sample was taken and filtered. The concentration of the filtrate was measured by HPLC and the results are described in the following Table 2.

[3] = FaSSIF, 37 °C, thermodynamic from solid

| SMILES | Inhibition (%) of the increase in uterus weight by estradiol [1] | solubility at 1 h [2, 3] | solubility at 2 h [2, 3] | solubility at 20 h [2, 3] | Solubility in water (in words) ([2]; water as the solvent) |
| --- | --- | --- | --- | --- | --- |
| CC1(c2ccc(O)cc2)CSc2cc(O)ccc2C1CCCCCCCCC(CCCC(F)(F)C(F)(F)F)C(=O)O (stereo not drawn) [(3′RS,4′RS)-10-[7-Hydroxy-3-(4-hydroxyphenyl)-3-methylthiochroman-4-yl]-2-(4,4,5,5,5-pentafluoropentyl)decanoic Acid] | 79% | – | – | – | – |
| C[C@]12CC[C@@H]3c4ccc(O)cc4C[C@@H](CCCCCCCCC[S+]([O-])CCCC(F)(F)C(F)(F)F)[C@H]3[C@@H]1CC[C@@H]2O (stereo partly shown) [ICI182,780] | 69% | 0.365 µg/mL (≈ 0.602 µM) | 0.474 µg/mL (≈ 0.781 µM) | 1.7 µg/mL (≈ 2.8 µM) | can hardly be solved in water |
| C[C@@]1(c2ccc(O)cc2)CSc2cc(O)ccc2[C@@H]1CCCCCCCCC(CCCC(F)(F)C(F)(F)F)C(=O)[O-].[Na+] (mixture of isomers) [Example 1, Sodium (3′RS,4′RS)-10-[7-hydroxy-3-(4-hydroxyphenyl)-3-methylthiochroman-4-yl]-2-(4,4,5,5,5-pentafluoropentyl)decanoate] | 74% | – | – | – | – |
